Publication PMC3510080, “Identification of Compounds with Anti-Proliferative Activity against Trypanosoma brucei brucei Strain 427 by a Whole Cell Viability Based HTS Campaign” (PLoS Neglected Tropical Diseases, 2012)

Legend:
[1] = system: T. cruzi Tulahuen strain C2C4; assay: T. cruzi Tulahuen strain C2C4 β-galactosidase assay; SI versus L6 cells; type: cell-based, Trypanosoma cruzi
Experimental: (§1) L6 rat skeletal myoblasts, [29] were purchased from the American Type Culture Collection (ATCC, Rockville, MD, USA; ATCC number CRL 1458). This cell line was used for cytotoxicity testing to calculate an SI against T.b. rhodesiense and screened alongside the T.b. rhodesiense, P. falciparum, T. cruzi and L. donovani assays. L6 were also the host cells for the T. cruzi assay. Assays were performed in 96-well microtiter plates, each well containing 100 µl of RPMI 1640 medium supplemented with 1% L-glutamine (200 mM), 10% FCS, and 4000 L6 cells. Serial drug dilutions of eleven 3-fold dilution steps covering a range from 100 to 0.002 µg/ml were prepared. After 70 hours of incubation the plates were inspected under an inverted microscope to assure growth of the controls and sterile conditions. Ten µl of resazurin solution (resazurin, 12.5 mg in 100 ml double-distilled water) was then added to each well and the plates incubated for another 2 hours. Then the plates were read with a Spectramax Gemini XS microplate fluorometer (Molecular Devices Cooperation, Sunnyvale, CA, USA) using an excitation wavelength of 536 nm and an emission wavelength of 588 nm. Data was analysed using the microplate reader software Softmax Pro (Molecular Devices, USA). Podophyllotoxin was used as a positive control in the assay.
Rat skeletal myoblasts (L6 cells) were seeded in 96-well microtitre plates at 2000 cells/well in 100 µl RPMI 1640 medium with 10% FCS and 2 mM l-glutamine. After 24 hours the medium was removed and replaced by 100 µl per well containing 5000 trypomastigote forms of T. cruzi Tulahuen strain C2C4 containing the β-galactosidase (Lac Z) gene. After 48 hours the medium was removed from the wells and replaced by 100 µl fresh medium with or without a serial drug dilution of eleven 3-fold dilution steps covering a range from 100 to 0.002 µg/ml. After 96 hours of incubation the plates were inspected under an inverted microscope to assure growth of the controls and sterility. Then 50 µl of the substrate, containing chlorophenol red-β-D-galactopyranoside (CPRG) and Nonidet, was added to all wells. A colour reaction developed within 2–6 hours that could be read photometrically at 540 nm. Data were transferred into the graphic programme Softmax Pro (Molecular Devices, USA), which calculated IC50 values. The drug benznidazole was used as a positive standard in this assay.

[2] = system: P. falciparum K1 strain; assay: P. falciparum 3H-hypoxanthine incorporation assay; SI versus L6 cells; type: cell-based, Plasmodium falciparum; conditions: Plasmodium falciparum, K1, L6, read-out: Reference Compound Activity P.F (IC50)
Experimental: as §1
Compounds dissolved in DMSO at 10 mg/ml were added to parasite cultures incubated in RPMI 1640 medium without hypoxanthine, supplemented with HEPES (5.94 g/l), NaHCO3 (2.1 g/l), neomycin (100 U/ml), Albumax (5 g/l) and washed human A^+ red blood cells at 2.5% haematocrit (0.3% parasitaemia). Serial drug dilutions of eleven 3-fold dilution steps covering a range from 100 to 0.002 µg/ml were prepared. The 96-well plates were incubated in a humidified atmosphere at 37°C; 4% CO2, 3% O2, 93% N2. After 48 hours, 50 µl of ^3H-hypoxanthine ( = 0.5 µCi) was added to each well of the plate. The plates were incubated for a further 24 hours under the same conditions. The plates were then harvested with a Betaplate cell harvester (Wallac, Zurich, Switzerland), and the red blood cells transferred onto a glass fibre filter then washed with distilled water. The dried filters were inserted into a plastic foil with 10 ml of scintillation fluid, and counted in a Betaplate liquid scintillation counter (Wallac, Zurich, Switzerland). IC50 values were calculated from sigmoidal inhibition curves using Microsoft Excel.

[3] = system: T.b. rhodesiense STIB900; assay: T. b. rhodesiense STIB900 assay (resazurin); SI versus L6 cells; type: cell-based, Trypanosoma brucei rhodesiense
Experimental: as §1
T.b. rhodesiense STIB900 stock was isolated in 1982 from a human patient in Tanzania and after several mouse passages cloned and adapted to axenic culture conditions. Fifty microliters of Minimum Essential Medium (MEM) supplemented with 25 mM HEPES, 1 g/l additional glucose, 1% MEM non-essential amino acids (100×), 0.2 mM 2-mercaptoethanol, 1 mM Na-pyruvate and 15% heat inactivated horse serum was added to each well of a 96-well microtiter plate. Serial drug dilutions of eleven 3-fold dilution steps covering a range from 100 to 0.002 µg/ml were prepared. Four thousand bloodstream form cells of T.b. rhodesiense STIB 900 in 50 µl were added to each well and the plate incubated at 37°C under a 5% CO2 atmosphere for 70 hours. Ten microlitres of resazurin solution (resazurin, 12.5 mg in 100 ml double-distilled water) was then added to each well and incubation continued for a further 2–4 hours. Plates were then read with a Spectramax Gemini XS microplate fluorometer (Molecular Devices, USA) using an excitation wavelength of 536 nm and an emission wavelength of 588 nm. Data was analysed using the microplate reader software Softmax Pro (Molecular Devices, USA). The drug melarsoprol was a positive control against T.b. rhodesiense.

[4] = system: L. donovani strain MHOM/ET/67/L82 axenic amastigotes; assay: L. donovani axenic amastigote fluorescence assay; SI versus L6 cells; type: cell-based, Leishmania donovani
Experimental: as §1
Amastigotes of L. donovani strain MHOM/ET/67/L82 were grown in axenic culture at 37°C in SM medium at pH 5.4 supplemented with 10% heat-inactivated FCS under an atmosphere of 5% CO2 in air. One hundred µl of culture medium containing 10^5 amastigotes from axenic culture with or without a serial drug dilution were seeded in 96-well microtitre plates. Serial drug dilutions of eleven 3-fold dilution steps covering a range from 100 to 0.002 µg/ml were prepared. After 70 hours of incubation the plates were inspected under an inverted microscope to assure growth of the controls and sterile conditions. Ten µl of resazurin solution (12.5 mg resazurin dissolved in 100 ml distilled water) were then added to each well and the plates incubated for another 2 hours. The plates were then read with a Spectramax Gemini XS microplate fluorometer (Molecular Devices, USA) using an excitation wavelength of 536 nm and an emission wavelength of 588 nm. Data was analysed using the software Softmax Pro (Molecular Devices, USA). Decrease of fluorescence ( = inhibition) was expressed as percentage of the fluorescence of control cultures and plotted against the drug concentrations. From the sigmoidal inhibition curves the IC50 values were calculated. Miltefosine served as a known drug control in this assay.

In the case of `O=C(Cn1ccnc1[N+](=O)[O-])NCc1ccccc1` [Benznidazole, benznidazole, reference compound], the IC50 ([1]; Trypanosoma cruzi, TULAHUEN, L6, positive standard, read-out: Reference Compound Activity T.C (IC50)) is reported as 1680 ± 1930 nM and the “Selectivity Index T.C” value ([1]; relative to L6 cells) is reported as greater than 206.
For `CCN(CC)CCCC(C)Nc1ccnc2cc(Cl)ccc12` (stereo not shown) [Chloroquine, reference compound], the IC50 [2] was 164 ± 24.7 nM.
For `Nc1nc(N)nc(Nc2ccc([As]3SCC(CO)S3)cc2)n1` (stereo not shown) [Melarsoprol, melarsoprol, reference compound], the IC50 ([3]; Trypanosoma brucei, L6, read-out: Reference Compound Activity T.R (IC50)) was 6.28 ± 1.78 nM and the “Selectivity Index T.R” value ([3]; relative to L6 cells) was 2915.
`CCCCCCCCCCCCCCCCOP(=O)([O-])OCC[N+](C)(C)C` [Miltefosine, reference compound] was tested, and the IC50 ([4]; Leishmania donovani, L6, known drug control, read-out: Reference Compound Activity L.D (IC50)) was 365 ± 93.7 nM and the “Selectivity Index L.D” value ([4]; relative to L6 cells) was 392.
